Experimental findings from ChEMBL document CHEMBL5223143, “Identification of novel benzimidazole derivatives as highly potent AMPK activators with anti-diabetic profiles” (Bioorg Med Chem Lett, 2023) are described below.

Activity calls are given as the source filed them. No cut-off for these calls is given here.

As a reminder, the fraction unbound is the share of the substance not bound to proteins or other matrix. What is called clearance is a measure of how efficiently the substance is removed, as volume per time. Higher therefore signals efficient removal. As usually defined, the Cmax is the peak of the concentration-time curve. In general, IC50 refers to the concentration that inhibits the measured activity by half. A low value points to greater potency in that assay. The AUC is the area under the concentration-time curve, a measure of exposure.

Data set [1] has as its target AMPK alpha2/beta2/gamma1 (Homo sapiens) (UniProt P54646+O43741+P54619). The data set can be described thus: Activation of human recombinant AMPK A2/B2/G1 assessed as increase in AMPK phosphorylation using FL-peptide as substrate incubated for 120 mins by EZ reader method. Format: protein-complex assay. The settings on record: filed as activator.
The test system of the next data set is L6. The data set can be described thus: Activation of AMPK alpha2beta2gamma1 in rat L6 cells assessed as increase in AMPK phosphorylation by ELISA assay. Format: cell-based. The settings on record: filed as activator.
Data set [2] can be described thus: Protein binding in serum (unknown origin) assessed as free fraction by equilibrium dialysis method. Format: ADME, cell-free. (In general: In equilibrium dialysis free small molecules cross a membrane that holds back macromolecules.)
Data set [3] deals with Mus musculus. The data set can be described thus: Antidiabetic activity against diabetic KKAy mouse model assessed as increase in ACC phosphorylation in skeletal muscle at 0.3 to 3 mg/kg,po bid. Format: functional, organism-based. The settings on record: dose 0.3-3 mg/kg.
For data set [4], the system named is Mus musculus. The data set can be described thus: Antidiabetic activity against diabetic KKAy mouse model assessed as decrease in HbA1c level at 0.3 to 3 mg/kg,po bid observed upto 21 days. Format: functional, organism-based. As to conditions: dose 0.3-3 mg/kg, time <= 21.0 day.
Data set [5] is described as follows: Total clearance in rat at 0.5 mg/kg,iv. Format: ADME, organism-based. The settings on record: in vivo.
Data set [6] can be described thus: Metabolic stability in rat liver microsomes assessed as compound remaining incubated for 30 mins. Format: ADME, Microsome. The settings on record: read-out: Stability. (Liver microsomes are a subcellular fraction often used to study metabolism.)
Data set [7] in a line: Cmax in rat at 0.5 mg/kg,iv. The class given is ADME, organism-based. On the set-up: dose 0.5 mg/kg, route iv. The settings on record: in vivo.
In another data set the target is Cytochrome P450 2C9 (Homo sapiens, UniProt P11712). The data set can be described thus: Inhibition of CYP2C9 in human liver microsomes using tolbutamide as substrate. The class given is ADME, Microsome.
A further data set addresses Cytochrome P450 2D6 (Homo sapiens, UniProt P10635). The data set can be described thus: Inhibition of CYP2D6 in human liver microsomes using dextromethorphan as substrate. The class given is ADME, Microsome.
A further data set addresses Cytochrome P450 3A4 (Homo sapiens, UniProt P08684). The data set can be described thus: Inhibition of CYP3A4 in human liver microsomes using terfenedine as substrate. Format: ADME, Microsome.
The next data set addresses Cytochrome P450 2C19 (Homo sapiens, UniProt P33261). The data set can be described thus: Inhibition of CYP2C19 in human liver microsomes using mephenytoin as substrate. The class given is ADME, Microsome.
A further data set deals with T1, Cytochrome P450 1A2 (Homo sapiens, UniProt P05177).
T1 sequence (P05177 whole entry): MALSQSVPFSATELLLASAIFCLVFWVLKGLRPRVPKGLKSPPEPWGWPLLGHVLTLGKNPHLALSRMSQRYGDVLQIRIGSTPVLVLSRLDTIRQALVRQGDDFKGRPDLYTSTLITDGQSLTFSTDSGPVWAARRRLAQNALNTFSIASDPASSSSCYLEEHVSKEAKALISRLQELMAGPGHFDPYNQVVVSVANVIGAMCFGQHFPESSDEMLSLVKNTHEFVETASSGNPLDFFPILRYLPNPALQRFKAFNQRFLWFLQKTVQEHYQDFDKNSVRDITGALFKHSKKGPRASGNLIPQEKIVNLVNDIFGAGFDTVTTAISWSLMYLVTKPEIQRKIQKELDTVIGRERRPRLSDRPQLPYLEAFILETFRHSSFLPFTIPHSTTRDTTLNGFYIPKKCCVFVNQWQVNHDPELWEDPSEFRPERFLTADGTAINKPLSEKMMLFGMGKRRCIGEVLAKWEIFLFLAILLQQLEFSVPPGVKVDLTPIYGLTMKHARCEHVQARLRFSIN
The data set can be described thus: Inhibition of CYP1A2 in human liver microsomes using 7-ethoxyresorufin as substrate. Format: ADME, Microsome.

The nature of data set [8]: AUC in rat at 1 mg/kg,po. The settings on record: in vivo. Format: ADME, organism-based. Further details: dose 1 mg/kg, route po.
The nature of data set [9]: […] in rat liver at 0.5 mg/kg,iv. Format: ADME, organism-based.
Data set [10] can be described thus: Metabolic stability in human liver microsomes assessed as compound remaining incubated for 30 mins. The class given is ADME, Microsome. As to conditions: read-out: Stability.
Data set [11] is described as follows: […] in rat muscle tissue at 0.5 mg/kg,iv. Format: ADME, organism-based.
Data set [12] concerns Mus musculus. The data set can be described thus: Antidiabetic activity against diabetic KKAy mouse model assessed as acute glucose lowering effect at 0.3 to 3 mg/kg,po bid. The settings on record: dose 0.3-3 mg/kg. Format: functional, organism-based.
Data set [13] deals with Mus musculus. The data set can be described thus: Antidiabetic activity against diabetic KKAy mouse model assessed as decrease in plasma glucose level at 0.3 to 3 mg/kg,po bid observed upto 21 days. The settings on record: dose 0.3-3 mg/kg, time <= 21.0 day. The class given is functional, organism-based.

Sequence of AMPK alpha2/beta2/gamma1 (Homo sapiens) (O43741 whole entry, looked up): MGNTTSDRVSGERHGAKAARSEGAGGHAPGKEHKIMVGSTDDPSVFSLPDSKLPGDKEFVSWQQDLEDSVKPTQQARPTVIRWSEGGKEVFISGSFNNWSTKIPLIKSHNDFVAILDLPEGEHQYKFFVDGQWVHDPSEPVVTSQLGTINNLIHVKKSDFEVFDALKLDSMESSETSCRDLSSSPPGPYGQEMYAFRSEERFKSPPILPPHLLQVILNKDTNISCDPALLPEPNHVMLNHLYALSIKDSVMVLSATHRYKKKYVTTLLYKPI
Sequence of AMPK alpha2/beta2/gamma1 (Homo sapiens) (P54619 whole entry, looked up): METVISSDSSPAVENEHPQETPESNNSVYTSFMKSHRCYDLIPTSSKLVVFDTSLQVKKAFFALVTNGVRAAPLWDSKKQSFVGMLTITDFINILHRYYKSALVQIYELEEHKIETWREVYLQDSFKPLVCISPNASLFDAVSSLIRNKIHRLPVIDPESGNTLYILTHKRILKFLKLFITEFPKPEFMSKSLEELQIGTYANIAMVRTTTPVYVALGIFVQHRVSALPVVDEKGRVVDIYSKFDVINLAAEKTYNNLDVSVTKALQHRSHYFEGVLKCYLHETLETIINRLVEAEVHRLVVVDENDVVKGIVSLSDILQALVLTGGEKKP
Sequence of AMPK alpha2/beta2/gamma1 (Homo sapiens) (P54646 whole entry, looked up): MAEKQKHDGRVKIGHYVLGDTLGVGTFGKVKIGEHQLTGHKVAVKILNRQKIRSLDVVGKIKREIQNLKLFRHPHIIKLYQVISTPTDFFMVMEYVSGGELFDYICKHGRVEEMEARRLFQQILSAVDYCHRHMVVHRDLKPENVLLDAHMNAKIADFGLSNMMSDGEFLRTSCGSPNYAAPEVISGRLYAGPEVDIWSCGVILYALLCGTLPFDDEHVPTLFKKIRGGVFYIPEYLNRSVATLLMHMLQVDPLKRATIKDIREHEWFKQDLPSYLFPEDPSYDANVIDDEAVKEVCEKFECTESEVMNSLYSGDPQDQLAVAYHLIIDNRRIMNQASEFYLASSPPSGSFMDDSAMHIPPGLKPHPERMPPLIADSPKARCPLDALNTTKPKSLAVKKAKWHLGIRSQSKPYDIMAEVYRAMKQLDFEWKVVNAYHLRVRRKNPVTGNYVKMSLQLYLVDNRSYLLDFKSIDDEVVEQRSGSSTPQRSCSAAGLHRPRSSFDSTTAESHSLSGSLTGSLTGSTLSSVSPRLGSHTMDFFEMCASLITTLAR
Sequence of Cytochrome P450 2C9 (P11712 whole entry): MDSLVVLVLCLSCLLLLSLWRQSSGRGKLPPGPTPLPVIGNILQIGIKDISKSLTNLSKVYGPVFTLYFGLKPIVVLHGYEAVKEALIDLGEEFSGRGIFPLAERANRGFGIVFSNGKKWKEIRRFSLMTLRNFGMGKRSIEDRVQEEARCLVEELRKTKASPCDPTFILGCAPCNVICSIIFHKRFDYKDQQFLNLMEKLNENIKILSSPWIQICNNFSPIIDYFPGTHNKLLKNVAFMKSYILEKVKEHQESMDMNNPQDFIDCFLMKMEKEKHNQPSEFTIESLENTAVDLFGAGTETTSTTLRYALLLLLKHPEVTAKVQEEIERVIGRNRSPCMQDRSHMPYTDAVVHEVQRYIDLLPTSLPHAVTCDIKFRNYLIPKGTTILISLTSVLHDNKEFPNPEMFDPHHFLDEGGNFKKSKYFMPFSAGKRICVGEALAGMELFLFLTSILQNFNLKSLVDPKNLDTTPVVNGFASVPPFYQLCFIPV
Sequence of Cytochrome P450 2C19 (P33261 whole entry): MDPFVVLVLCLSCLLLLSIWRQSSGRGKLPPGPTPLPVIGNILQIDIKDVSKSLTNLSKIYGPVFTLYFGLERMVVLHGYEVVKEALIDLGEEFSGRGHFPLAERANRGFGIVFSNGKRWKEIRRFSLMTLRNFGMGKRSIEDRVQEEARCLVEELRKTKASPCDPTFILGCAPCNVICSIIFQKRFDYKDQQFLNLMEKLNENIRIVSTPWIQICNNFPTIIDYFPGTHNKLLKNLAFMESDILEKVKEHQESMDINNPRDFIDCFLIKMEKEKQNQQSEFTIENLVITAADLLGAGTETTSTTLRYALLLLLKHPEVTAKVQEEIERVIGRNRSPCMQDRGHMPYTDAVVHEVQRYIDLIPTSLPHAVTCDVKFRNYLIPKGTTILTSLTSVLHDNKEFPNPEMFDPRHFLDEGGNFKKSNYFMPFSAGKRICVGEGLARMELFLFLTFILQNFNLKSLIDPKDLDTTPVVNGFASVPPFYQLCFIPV
Sequence of Cytochrome P450 3A4 (P08684 whole entry): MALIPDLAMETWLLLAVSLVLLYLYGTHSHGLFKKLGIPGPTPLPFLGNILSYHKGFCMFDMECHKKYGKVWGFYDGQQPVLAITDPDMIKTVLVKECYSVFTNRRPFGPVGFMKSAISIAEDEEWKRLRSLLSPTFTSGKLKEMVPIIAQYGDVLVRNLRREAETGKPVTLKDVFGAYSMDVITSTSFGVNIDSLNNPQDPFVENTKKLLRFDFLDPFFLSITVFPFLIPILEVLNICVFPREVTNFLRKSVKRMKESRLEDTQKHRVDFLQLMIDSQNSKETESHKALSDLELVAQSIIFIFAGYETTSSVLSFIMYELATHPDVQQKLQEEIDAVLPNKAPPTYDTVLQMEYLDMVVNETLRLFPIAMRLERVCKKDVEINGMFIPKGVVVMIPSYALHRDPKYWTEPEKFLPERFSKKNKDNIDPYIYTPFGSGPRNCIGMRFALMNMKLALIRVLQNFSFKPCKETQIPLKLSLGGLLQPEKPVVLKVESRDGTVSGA
Sequence of Cytochrome P450 2D6 (P10635 whole entry): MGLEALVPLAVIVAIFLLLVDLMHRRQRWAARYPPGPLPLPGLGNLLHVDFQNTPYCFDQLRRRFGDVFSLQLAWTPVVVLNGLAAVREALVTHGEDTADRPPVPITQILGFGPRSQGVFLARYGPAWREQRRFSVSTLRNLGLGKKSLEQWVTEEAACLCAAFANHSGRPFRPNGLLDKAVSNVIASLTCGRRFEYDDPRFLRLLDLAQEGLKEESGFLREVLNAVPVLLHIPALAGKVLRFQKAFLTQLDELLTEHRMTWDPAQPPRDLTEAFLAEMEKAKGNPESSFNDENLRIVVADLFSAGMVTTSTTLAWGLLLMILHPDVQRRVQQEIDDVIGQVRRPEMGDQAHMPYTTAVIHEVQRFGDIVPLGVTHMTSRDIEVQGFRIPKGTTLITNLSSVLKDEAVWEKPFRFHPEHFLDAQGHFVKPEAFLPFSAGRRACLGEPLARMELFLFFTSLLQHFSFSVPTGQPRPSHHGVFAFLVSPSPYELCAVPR

On to `CS(=O)(=O)c1ccccc1CNc1nc2nc(O[C@@H]3CO[C@H]4[C@@H]3OC[C@H]4O)[nH]c2cc1Cl`, for which, in [1], the EC150 was found to be 23 µM.
For `OCc1ccccc1CNc1nc2nc(O[C@@H]3CO[C@H]4[C@@H]3OC[C@H]4O)[nH]c2cc1Cl`, the EC150 in data set [1] was found to be 9.5 µM.
Take `O[C@@H]1CO[C@H]2[C@@H]1OC[C@H]2Oc1nc2nc(NCCCc3ccccc3)c(Cl)cc2[nH]1`: the EC150 in data set [1] came out at 15 µM.
On the same count and under the same terms, under `O[C@@H]1CO[C@H]2[C@@H]1OC[C@H]2Oc1nc2nc(NCc3ccccc3)c(Cl)cc2[nH]1` stands 0.16 µM.
`Cn1cc(-c2cc(F)c3c(c2)CC[C@@H]3Nc2nc3nc(O[C@@H]4CO[C@H]5[C@@H]4OC[C@H]5O)[nH]c3cc2Cl)cn1`: the values for the EC150 (with L6; in data set [1]) were 0.0847 µM and 0.0044 µM, respectively.
For `CC(=O)Nc1cc(F)c2c(c1)CC[C@@H]2Nc1nc2nc(O[C@@H]3CO[C@H]4[C@@H]3OC[C@H]4O)[nH]c2cc1Cl`, in that order: 0.584 µM and 0.0047 µM.
Turning to `O[C@@H]1CO[C@H]2[C@@H]1OC[C@H]2Oc1nc2nc(NCc3ccccc3C(F)(F)F)c(Cl)cc2[nH]1`, the EC150 in data set [1] stood at 8.9 µM.
On the same count and under the same terms, under `CN(Cc1ccccc1)c1nc2nc(O[C@@H]3CO[C@H]4[C@@H]3OC[C@H]4O)[nH]c2cc1Cl` stands 4.9 µM.
Consider `O[C@@H]1CO[C@H]2[C@@H]1OC[C@H]2Oc1nc2nc(N[C@H]3CCc4cccc(F)c43)c(Cl)cc2[nH]1`, for which the values for the EC150 (in the data set on L6; in [1]) were 1.06 µM and 0.002 µM, respectively.
`O[C@@H]1CO[C@H]2[C@@H]1OC[C@H]2Oc1nc2nc(NCc3ccccc3F)c(Cl)cc2[nH]1`: in data set [1], the EC150 is 0.048 µM.
Same read-out and setting: under `O[C@@H]1CO[C@H]2[C@@H]1OC[C@H]2Oc1nc2nc(N[C@H]3CCc4ccccc43)c(Cl)cc2[nH]1` stands 0.0031 µM.
In the case of `COCCOc1cc(F)c2c(c1)CC[C@@H]2Nc1nc2nc(O[C@@H]3CO[C@H]4[C@@H]3OC[C@H]4O)[nH]c2cc1Cl`, in data set [2], the fraction unbound stood at 0.031. Also, the Activity result in the data set with Mus musculus [3] and with Mus musculus [4] was “Dose-Dependent Effect” throughout. Further, the clearance in data set [5] came out at 9.02 mL/min/kg. Besides, the EC150 amounted to 0.0443 µM with L6 and 0.0016 µM in data set [1]. Further, the remaining at 0.5 h in data set [6] is 81%; in data set [10] it was 91%. Also, in data set [7], the highest level (Cmax) was 65.4 ng/mL. The IC50 on Cytochrome P450 2C9, against Cytochrome P450 2D6, against Cytochrome P450 3A4, on Cytochrome P450 2C19 and against Cytochrome P450 1A2 was above 20 µM in each case. The area under the curve (AUC) in data set [8] is 347 ng·h/mL. The results for the Kp in data set [9] and in data set [11] were 5.64 and 1.51, respectively. In addition, the outcome in the data set with Mus musculus [12] and in the data set with Mus musculus [13] was Active.
